Test results published in publication PMC7725003, “Systematically Studying the Optimal Amino Acid Distribution Patterns of the Amphiphilic Structure by Using the Ultrashort Amphiphiles” (Frontiers in Microbiology, 2020).
Where no end group is shown, it is not given here.

Columns and labels:
E. coli 25922 = type: cell-based, Escherichia coli; conditions: 25922, 24 h
Description: (§1) The antimicrobial activities of the peptides were measured using a method adapted from the National Committee for Clinical Laboratory Standards (NCCLS) with some modifications ([Chou et al., 2016]). The specific procedure for these assays has been previously described. In brief, the bacterial cells were grown to a mid-logarithmic phase and diluted in MHB to an ultimate concentration of 0.5–1 × 10^6 CFU mL^–1. Subsequently, the peptides were consecutively diluted in a 0.2% BSA solution and then added to a bacterial solution in a 96-well plate at identical volumes. After incubation for 24 h at 37°C, the MICs were determined to be the lowest peptide concentration that inhibited 95% of the bacterial growth by monitoring the absorbance at 492 nm using a microplate reader. Subsequently, 50 μL of each incubation mixture was further transferred to agar plates and incubated overnight. The minimum bactericidal concentrations (MBCs) were determined as the lowest peptide concentration that killed greater than 99.9% of the bacterial cells. Every assay was reproduced more than 3 times.

E. coli O78 = type: cell-based, Escherichia coli; conditions: O78, 24 h
Description: as §1

E. coli UB1005 = type: cell-based, Escherichia coli; conditions: UB1005, 24 h
Description: as §1

S. typhimurium 14028 = type: cell-based, Salmonella typhimurium; conditions: 14028, 24 h
Description: as §1

S. typhimurium 7731 = type: cell-based, Salmonella typhimurium; conditions: 7731, 24 h
Description: as §1

S. pullorum 7913 = type: cell-based, Salmonella pullorum; conditions: 7913, 24 h
Description: as §1

P. aeruginosa 27853 = type: cell-based, Pseudomonas aeruginosa; conditions: 27853, 24 h
Description: as §1

Gram-negative bacteria = conditions: for GM, Gram-negative bacteria: geometric mean of MICs (Table 3); for TI, Gram-negative bacteria: therapeutic index TI = MHC/GM MIC
Description: (§2) The antimicrobial activity of AMPs is the most decisive index for evaluating the clinical application of antimicrobial drugs.
as §1, with “The minimum bactericidal concentrations (MBCs) were determined as the lowest peptide concentration that killed greater than 99.9% of the bacterial cells.” left out

Gram-positive bacteria = conditions: for GM, Gram-positive bacteria: geometric mean of MICs (Table 3); for TI, Gram-positive bacteria: therapeutic index TI = MHC/GM MIC
Description: as §2
as §1, with “The minimum bactericidal concentrations (MBCs) were determined as the lowest peptide concentration that killed greater than 99.9% of the bacterial cells.” left out

S. aureus 25923 = type: cell-based, Staphylococcus aureus; conditions: 25923, 24 h
Description: as §1

S. aureus 29213 [1] = type: cell-based, Staphylococcus aureus; conditions: 29213, 24 h
Description: as §1

S. epidermidis 12228 = type: cell-based, Staphylococcus epidermidis; conditions: 12228, 24 h
Description: as §1

MRSA 43300 = type: cell-based, methicillin-resistant S. aureus; conditions: 43300, 24 h
Description: as §1

B. subtilis 63501 = type: cell-based, Bacillus subtilis; conditions: 63501, 24 h
Description: as §1

E. faecalis 29212 = type: cell-based, Enterococcus faecalis; conditions: 29212, 24 h
Description: as §1

[2] = test system: Listeria monocytogenes CGMCC 1.1075; type: cell-based; conditions: CGMCC 1.1075, 24 h
Description: as §1

[3] = test system: all of the tested bacterial strains; assay: Geometric mean of MICs, all tested bacterial strains; type: cell-based; conditions: for GM, All: geometric mean of MICs across all tested strains; for TI, All: therapeutic index TI = MHC/GM MIC
From the text: The antimicrobial activity of AMPs is the most decisive index for evaluating the clinical application of antimicrobial drugs. Many antimicrobial agents inhibit bacterial growth rather than kill the bacteria quickly, and long-term infections are pathogens that are not completely killed, which results in bacterial severe drug resistance. […] The geometric mean (GM) values of the MICs/MBCs of the two series across all of the tested bacterial strains are represented in Table 3, which depicts the average bacteriostatic/bactericidal level of a peptide.
as §1

E. coli ATCC 25922 = assay: Salt sensitivity assay (MIC); type: cell-based, Escherichia coli; conditions: for MIC, FeCl3: 4 μM FeCl3; for MIC, NH4Cl: 6 μM NH4Cl; for MIC, ZnCl2: 8 μM ZnCl2; for MIC, MgCl2: 1 mM MgCl2; for MIC, CaCl2: 2 mM CaCl2; for MIC, KCl: 4.5 mM KCl; for MIC, NaCl: 150 mM NaCl; for MIC, Control: no added salt, three independent assays
Description: as §1
(§3) The salt sensitivities of the peptides were determined. E. coli ATCC 25922 and S. aureus ATCC 29213 were incubated in the presence of various ultimate concentrations of physiological salts (150 mM NaCl, 4.5 mM KCl, 6 μM NH4Cl, 8 μM ZnCl2, 1 mM MgCl2, 2mM CaCl2, and 4 μM FeCl3) according to our previous protocol ([Yang et al., 2019]). These tests were performed under the MICs, and three independent assays were performed.

S. aureus 29213 [4] = assay: Salt sensitivity assay (MIC); type: cell-based, Staphylococcus aureus; conditions: for MIC, FeCl3: 4 μM FeCl3; for MIC, NH4Cl: 6 μM NH4Cl; for MIC, ZnCl2: 8 μM ZnCl2; for MIC, MgCl2: 1 mM MgCl2; for MIC, CaCl2: 2 mM CaCl2; for MIC, KCl: 4.5 mM KCl; for MIC, NaCl: 150 mM NaCl; for MIC, Control: no added salt, three independent assays
Description: as §1, §3

**Q.** Which results are given for WWRWWRRRW-NH2 [W1]?
**A.** MBC (E. coli 25922): 8 µM; MIC (E. coli 25922): 4 µM; MBC (E. coli O78): 8 µM; MIC (E. coli O78): 4 µM; MBC (E. coli UB1005): 8 µM; MIC (E. coli UB1005): 4 µM; MBC (S. typhimurium 14028): 8 µM; MIC (S. typhimurium 14028): 4 µM; MBC (S. typhimurium 7731): 8 µM; MIC (S. typhimurium 7731): 4 µM; MBC (S. pullorum 7913): 8 µM; MIC (S. pullorum 7913): 4 µM; MBC (P. aeruginosa 27853): 16 µM; MIC (P. aeruginosa 27853): 8 µM; GM, Gram-negative bacteria (Gram-negative bacteria): 4.67 µM; TI, Gram-negative bacteria (Gram-negative bacteria): 13.70; GM, Gram-positive bacteria (Gram-positive bacteria): 2.44 µM; TI, Gram-positive bacteria (Gram-positive bacteria): 26.23; MBC (S. aureus 25923): 4 µM; MIC (S. aureus 25923): 2 µM; MBC (S. aureus 29213 [1]): 4 µM; MIC (S. aureus 29213 [1]): 2 µM; MBC (S. epidermidis 12228): 4 µM; MIC (S. epidermidis 12228): 2 µM; MBC (MRSA 43300): 4 µM; MIC (MRSA 43300): 2 µM; MBC (B. subtilis 63501): 2 µM; MIC (B. subtilis 63501): 1 µM; MBC (E. faecalis 29212): 8 µM; MIC (E. faecalis 29212): 4 µM; MBC [2]: 16 µM; MIC [2]: 8 µM; GM, All [3]: 3.51 µM; TI, All [3]: 18.23; MIC, FeCl3 (E. coli ATCC 25922): 2 µM; MIC, NH4Cl (E. coli ATCC 25922): 4 µM; MIC, ZnCl2 (E. coli ATCC 25922): 2 µM; MIC, MgCl2 (E. coli ATCC 25922): 2 µM; MIC, CaCl2 (E. coli ATCC 25922): 2 µM; MIC, KCl (E. coli ATCC 25922): 4 µM; MIC, NaCl (E. coli ATCC 25922): 8 µM; MIC, Control (E. coli ATCC 25922): 4 µM; MIC, FeCl3 (S. aureus 29213 [4]): 2 µM; MIC, NH4Cl (S. aureus 29213 [4]): 2 µM; MIC, ZnCl2 (S. aureus 29213 [4]): 2 µM; MIC, MgCl2 (S. aureus 29213 [4]): 2 µM; MIC, CaCl2 (S. aureus 29213 [4]): 2 µM; MIC, KCl (S. aureus 29213 [4]): 2 µM; MIC, NaCl (S. aureus 29213 [4]): 4 µM; MIC, Control (S. aureus 29213 [4]): 2 µM

**Q.** Which MBC (E. coli 25922) does the source give for RRWWWRWRW-NH2 [W8] here?
**A.** 8 µM

**Q.** And the MIC (E. coli 25922)?
**A.** 4 µM

**Q.** What about the MBC (E. coli O78) of the same substance?
**A.** 8 µM

**Q.** And the MIC (E. coli O78)?
**A.** 4 µM

**Q.** And the MBC (E. coli UB1005)?
**A.** 8 µM

**Q.** What about the MIC (E. coli UB1005) of the same substance?
**A.** 4 µM

**Q.** What about the MBC (S. typhimurium 14028) of the same substance?
**A.** 8 µM

**Q.** What about the MIC (S. typhimurium 14028) of the same substance?
**A.** 4 µM

**Q.** What about the MBC (S. typhimurium 7731) of the same substance?
**A.** 8 µM

**Q.** And the MIC (S. typhimurium 7731)?
**A.** 4 µM

**Q.** What about the MBC (S. pullorum 7913) of the same substance?
**A.** 4 µM

**Q.** What about the MIC (S. pullorum 7913) of the same substance?
**A.** 2 µM

**Q.** And the MBC (P. aeruginosa 27853)?
**A.** 8 µM

**Q.** What about the MIC (P. aeruginosa 27853) of the same substance?
**A.** 4 µM

**Q.** What about the “GM, Gram-negative bacteria” value (Gram-negative bacteria) of the same substance?
**A.** 3.43 µM

**Q.** What about the “TI, Gram-negative bacteria” value (Gram-negative bacteria) of the same substance?
**A.** 37.32

**Q.** What about the “GM, Gram-positive bacteria” value (Gram-positive bacteria) of the same substance?
**A.** 2.00 µM

**Q.** What about the “TI, Gram-positive bacteria” value (Gram-positive bacteria) of the same substance?
**A.** 64.00

**Q.** What about the MBC (S. aureus 25923) of the same substance?
**A.** 4 µM

**Q.** And the MIC (S. aureus 25923)?
**A.** 2 µM

**Q.** What about the MBC (S. aureus 29213 [1]) of the same substance?
**A.** 4 µM

**Q.** And the MIC (S. aureus 29213 [1])?
**A.** 2 µM

**Q.** And the MBC (S. epidermidis 12228)?
**A.** 4 µM

**Q.** What about the MIC (S. epidermidis 12228) of the same substance?
**A.** 2 µM

**Q.** What about the MBC (MRSA 43300) of the same substance?
**A.** 4 µM

**Q.** And the MIC (MRSA 43300)?
**A.** 2 µM

**Q.** What about the MBC (B. subtilis 63501) of the same substance?
**A.** 2 µM

**Q.** What about the MIC (B. subtilis 63501) of the same substance?
**A.** 1 µM

**Q.** And the MBC (E. faecalis 29212)?
**A.** 8 µM

**Q.** What about the MIC (E. faecalis 29212) of the same substance?
**A.** 4 µM

**Q.** And the MBC [2]?
**A.** 4 µM

**Q.** And the MIC [2]?
**A.** 2 µM

**Q.** And the “GM, All” value [3]?
**A.** 2.71 µM

**Q.** What about the “TI, All” value [3] of the same substance?
**A.** 47.23

**Q.** And the MIC, FeCl3 (E. coli ATCC 25922)?
**A.** 2 µM

**Q.** What about the MIC, NH4Cl (E. coli ATCC 25922) of the same substance?
**A.** 4 µM

**Q.** What about the MIC, ZnCl2 (E. coli ATCC 25922) of the same substance?
**A.** 4 µM

**Q.** What about the MIC, MgCl2 (E. coli ATCC 25922) of the same substance?
**A.** 16 µM

**Q.** What about the MIC, CaCl2 (E. coli ATCC 25922) of the same substance?
**A.** 8 µM

**Q.** And the MIC, KCl (E. coli ATCC 25922)?
**A.** 16 µM

**Q.** And the MIC, NaCl (E. coli ATCC 25922)?
**A.** 32 µM

**Q.** What about the MIC, Control (E. coli ATCC 25922) of the same substance?
**A.** 4 µM

**Q.** What about the MIC, FeCl3 (S. aureus 29213 [4]) of the same substance?
**A.** 2 µM

**Q.** What about the MIC, NH4Cl (S. aureus 29213 [4]) of the same substance?
**A.** 4 µM

**Q.** What about the MIC, ZnCl2 (S. aureus 29213 [4]) of the same substance?
**A.** 4 µM

**Q.** What about the MIC, MgCl2 (S. aureus 29213 [4]) of the same substance?
**A.** 4 µM

**Q.** And the MIC, CaCl2 (S. aureus 29213 [4])?
**A.** 4 µM

**Q.** What about the MIC, KCl (S. aureus 29213 [4]) of the same substance?
**A.** 1 µM

**Q.** And the MIC, NaCl (S. aureus 29213 [4])?
**A.** 2 µM

**Q.** And the MIC, Control (S. aureus 29213 [4])?
**A.** 2 µM
